Measured values taken from patent publication US10519152B2, “Compounds and their use in treating cancer” (AstraZeneca AB, priority 2017, dated 2019).

Tests used:
[1] = biological target: T1, recombinant human Estrogen Receptor alpha ligand binding domain, residues 307-554 (ER alpha-LBD (GST)) (Homo sapiens, UniProt P03372); test: ERα binding assay (LanthaScreen TR-FRET competition); settings: TR-FRET competition with Fluormone ES2 tracer, 4 hours at room temperature; single experiment or average of two or more
T1 construct: made in house
T1 sequence (P03372 307-554): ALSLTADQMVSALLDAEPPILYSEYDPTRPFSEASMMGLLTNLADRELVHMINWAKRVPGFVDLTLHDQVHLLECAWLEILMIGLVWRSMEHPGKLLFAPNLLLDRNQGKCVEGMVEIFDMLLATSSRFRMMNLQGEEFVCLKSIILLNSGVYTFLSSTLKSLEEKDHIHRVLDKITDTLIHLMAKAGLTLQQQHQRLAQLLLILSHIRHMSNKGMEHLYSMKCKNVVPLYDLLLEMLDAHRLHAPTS
Protocol: The ability of compounds to bind to isolated Estrogen Receptor Alpha Ligand binding domain (ER alpha-LBD (GST)) was assessed in competition assays using a LanthaScreen™ Time-Resolved Fluorescence Resonance Energy Transfer (TR-FRET) detection end-point. For the LanthaScreen TR-FRET endpoint, a suitable fluorophore (Fluormone ES2, ThermoFisher, Product code P2645) and recombinant human Estrogen Receptor alpha ligand binding domain, residues 307-554 (expressed and purified in-house) were used to measure compound binding. The assay principle is that ER alpha-LBD (GST) is added to a fluorescent ligand to form a receptor/fluorophore complex. A terbium-labelled anti-GST antibody (Product code PV3551) is used to indirectly label the receptor by binding to its GST tag, and competitive binding is detected by a test compound's ability to displace the fluorescent ligand, resulting in a loss of TR-FRET signal between the Tb-anti-GST antibody and the tracer. The assay was performed as follows with all reagent additions carried out using the Beckman Coulter BioRAPTR FRD microfluidic workstation: • 1. Acoustic dispense 120 nL of the test compound into a black low volume 384 well assay plates. • 2. Prepare 1×ER alpha-LBD/Tb-antiGST Ab in ES2 screening buffer and incubate for 15 minutes. • 3. Dispense 6 μL of the […] reagent into each well of the assay plate followed by 6 μL of Fluorophore reagent into each well of the assay plate • 4. Cover the assay plate to protect the reagents from light and evaporation, and incubate at room temperature for 4 hours. • 5. Excite at 337 nm and measure the fluorescent emission signal of each well at 490 nm and 520 nm using the BMG PheraSTAR.
Compounds were dosed directly from a compound source microplate containing serially diluted compound (4 wells containing 10 mM, […] and 10 nM final compound respectively) to an assay microplate using the Labcyte Echo 550. The Echo 550 is a liquid handler that uses acoustic technology to perform direct microplate-to-microplate transfers of DMSO compound solutions and the system can be programmed to transfer multiple small nL volumes of compound from the different source plate wells to give the desired serial dilution of compound in the assay which is then back-filled to normalise the DMSO concentration across the dilution range.
In total 120 nL of compound plus DMSO were added to each well and compounds were tested in a 12-point concentration response format over a final compound concentration range of 10, 2.917, 1.042, 0.2083, 0.1, 0.0292, 0.0104, 0.002083, 0.001, 0.0002917, 0.0001042, and 0.00001 μM respectively. TR-FRET dose response data obtained with each compound was exported into a suitable software package (such as Origin or Genedata) to perform curve fitting analysis. Competitive ER alpha binding was expressed as an IC50 value. This was determined by calculation of the concentration of compound that was required to give a 50% reduction in tracer compound binding to ER alpha-LBD.

[2] = biological target: T2, Estrogen Receptor (ERα) in MCF-7 human ductal carcinoma breast cell line (Homo sapiens, UniProt P03372); test: MCF-7 ER degradation assay (cell based immuno-fluorescence); settings: MCF-7 cells, 18-22 hours incubation, 50% reduction of ERα expression; single experiment or average of two or more; read-out: MCF-7 ER degradation IC50
T2 construct: endogenous in cells; host or cells: MCF-7
T2 sequence (P03372 1-595): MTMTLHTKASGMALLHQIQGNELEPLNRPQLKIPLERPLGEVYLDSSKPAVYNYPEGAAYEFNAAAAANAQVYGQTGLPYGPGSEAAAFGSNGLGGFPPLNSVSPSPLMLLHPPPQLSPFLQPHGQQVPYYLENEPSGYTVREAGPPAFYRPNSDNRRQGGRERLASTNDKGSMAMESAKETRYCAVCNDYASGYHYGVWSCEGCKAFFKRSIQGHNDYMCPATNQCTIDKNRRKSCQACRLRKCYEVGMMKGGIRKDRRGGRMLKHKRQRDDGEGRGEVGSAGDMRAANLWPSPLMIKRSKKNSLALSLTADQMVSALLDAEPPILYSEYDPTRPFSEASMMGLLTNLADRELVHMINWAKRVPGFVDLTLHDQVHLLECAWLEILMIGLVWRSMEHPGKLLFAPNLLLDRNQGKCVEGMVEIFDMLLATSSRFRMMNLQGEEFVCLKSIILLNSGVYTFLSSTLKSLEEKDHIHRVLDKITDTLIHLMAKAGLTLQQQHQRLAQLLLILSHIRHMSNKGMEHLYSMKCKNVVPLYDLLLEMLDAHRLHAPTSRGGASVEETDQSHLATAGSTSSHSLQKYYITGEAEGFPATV
Protocol: MCF-7 ER Degradation Assay
The ability of compounds to down-regulate Estrogen Receptor (ER) numbers was assessed in a cell based immuno-fluorescence assay using the MCF-7 human ductal carcinoma breast cell line. MCF-7 cells were revived directly from a cryovial (approx 5×10^6 cells) in Assay Medium (phenol red free Dulbecco's Modified Eagle's medium (DMEM); Sigma D5921) containing 2 mM L-Glutamine and 5% (v/v) Charcoal/Dextran treated foetal calf serum. Cells were syringed once using a sterile 18 G×1.5 inch (1.2×40 mm) broad gauge needle and cell density was measured using a Coulter Counter (Beckman). Cells were further diluted in Assay Medium to a density of 3.75×10^4 cells per mL and 40 μL per well added to transparent bottomed, black, tissue culture-treated 384 well plates (Costar, No. 3712) using a Thermo Scientific Matrix WellMate or Thermo Multidrop. Following cell seeding, plates were incubated overnight at 37° C., 5% CO2 (Liconic carousel incubator). Test data was generated using the LabCyte Echo™ model 555 compound reformatter which is part of an automated workcell (Integrated Echo 2 workcell). Compound stock solutions (10 mM) of the test compounds were used to generate a 384 well compound dosing plate (Labcyte P-05525-CV1). 40 μL of each of the 10 mM compound stock solutions was dispensed into the first quadrant well and then 1:100 step-wise serial dilutions in DMSO were performed using a Hydra II (MATRIX UK) liquid handling unit to give 40 μL of diluted compound into quadrant wells 2 (0.1 mM), 3 (1 μM) and 4 (0.01 μM), respectively. 40 μL of DMSO added to wells in row P on the source plate allowed for DMSO normalisation across the dose range. To dose the control wells 40 μL of DMSO was added to row O1 and 40 μL of 100 μM fulvestrant in DMSO was added to row O3 on the compound source plate.
The Echo uses acoustic technology to perform direct microplate-to-microplate transfers of DMSO compound solutions to assay plates. The system can be programmed to transfer volumes as low as 2.5 nL in multiple increments between microplates and in so doing generates a serial dilution of compound in the assay plate which is then back-filled to normalise the DMSO concentration across the dilution range. Compounds were dispensed onto the cell plates with a compound source plate prepared as above producing a 12 point duplicate […] dose range with 3-fold dilutions and one final 10-fold dilution using the Integrated Echo 2 workcell. The maximum signal control wells were dosed with DMSO to give a final concentration of 0.3%, and the minimum signal control wells were dosed with fulvestrant to give a final concentration of 100 nM accordingly. Plates were further incubated for 18-22 hours at 37° C., 5% CO2 and then fixed by the addition of 20 μL of 11.1% (v/v) formaldehyde solution (in phosphate buffered saline (PBS)) giving a final formaldehyde concentration of 3.7% (v/v). Cells were fixed at room temperature for 20 mins before being washed two times with 250 μL PBS/Proclin (PBS with a Biocide preservative) using a BioTek platewasher, 40 μL of PBS/Proclin was then added to all wells and the plates stored at 4° C. The fixing method described above was carried out on the Integrated Echo 2 workcell. Immunostaining was performed using an automated AutoElisa workcell. The PBS/Proclin was aspirated from all wells and the cells permeabilised with 40 μL PBS containing 0.5% Tween™ 20 (v/v) for 1 hour at room temperature. The plates were washed three times in 250 μL of PBS/0.05% (v/v) Tween 20 with Proclin (PBST with a Biocide preservative) and then 20 μL of ERα (SP1) Rabbit monoclonal antibody (Thermofisher) 1:1000 in PBS/Tween™/3% (w/v) Bovine Serum Albumin was added. The plates were incubated overnight at 4° C. (Liconic carousel incubator) and then washed three times in 250 μL of PBS/0.05% (v/v) Tween™ 20 with Proclin (PBST). […]

| Structure (SMILES) | IC50 [1] | DC50 [2] |
| --- | --- | --- |
| Cc1ncsc1-c1ccc(CNC(=O)[C@@H]2C[C@@H](O)CN2C(=O)[C@@H](NC(=O)CCCN2CCN(CCCOc3cc(F)c([C@@H]4c5[nH]c6ccccc6c5C[C@@H](C)N4CC(C)(C)F)c(F)c3)CC2)C(C)(C)C)cc1 [Example 1, (2S,4R)-1-((S)-2-(4-(4-(3-(3,5-Difluoro-4-((1R,3R)-2-(2-fluoro-2-methylpropyl)-3-methyl-2,3,4,9-tetrahydro-1H-pyrido[3,4-b]indol-1-yl)phenoxy)propyl)piperazin-1-yl)butanamido)-3,3-dimethylbutanoyl)-4-hydroxy-N-(4-(4-methylthiazol-5-yl)benzyl)pyrrolidine-2-carboxamide] | 0.9 nM | 0.7 nM |
| Cc1ncsc1-c1ccc(CNC(=O)[C@@H]2C[C@@H](O)CN2C(=O)[C@@H](NC(=O)CN2CCN(CCCCCOc3cc(F)c([C@@H]4c5[nH]c6ccccc6c5C[C@@H](C)N4CC(C)(C)F)c(F)c3)CC2)C(C)(C)C)cc1 [Example 2, (2S,4R)-1-((S)-2-(2-(4-(5-(3,5-Difluoro-4-((1R,3R)-2-(2-fluoro-2-methylpropyl)-3-methyl-2,3,4,9-tetrahydro-1H-pyrido[3,4-b]indol-1-yl)phenoxy)pentyl)piperazin-1-yl)acetamido)-3,3-dimethylbutanoyl)-4-hydroxy-N-(4-(4-methylthiazol-5-yl)benzyl)pyrrolidine-2-carboxamide] | 0.6 nM | 2.9 nM |
| CC(=O)O[C@@H]1C[C@@H](C(=O)NCc2ccc(-c3scnc3C)cc2)N(C(=O)[C@@H](NC(=O)COCCCCCCOc2cc(F)c([C@@H]3c4[nH]c5ccccc5c4C[C@@H](C)N3CC(C)(C)F)c(F)c2)C(C)(C)C)C1 [Example 52, (3R,5S)-1-((S)-2-(2-((6-(3,5-difluoro-4-((1R,3R)-2-(2-fluoro-2-methylpropyl)-3-methyl-2,3,4,9-tetrahydro-1H-pyrido[3,4-b]indol-1-yl)phenoxy)hexyl)oxy)acetamido)-3,3-dimethylbutanoyl)-5-((4-(4-methylthiazol-5-yl)benzyl)carbamoyl)pyrrolidin-3-yl acetate] | 1.1 nM | 2.1 nM |
| Cc1ncsc1-c1ccc(CNC(=O)[C@@H]2C[C@@H](O)CN2C(=O)[C@@H](NC(=O)COCC/C=C/CCOc2ccc([C@@H]3c4[nH]c5ccccc5c4C[C@@H](C)N3CC(F)F)nc2)C(C)(C)C)cc1 [Example 21, (2S,4R)-1-((S)-2-(2-(((E)-6-((6-((1S,3R)-2-(2,2-Difluoroethyl)-3-methyl-2,3,4,9-tetrahydro-1H-pyrido[3,4-b]indol-1-yl)pyridin-3-yl)oxy)hex-3-en-1-yl)oxy)acetamido)-3,3-dimethylbutanoyl)-4-hydroxy-N-(4-(4-methylthiazol-5-yl)benzyl)pyrrolidine-2-carboxamide] | 13 nM | 300 nM |
| Cc1ncsc1-c1ccc(CNC(=O)[C@@H]2C[C@@H](O)CN2C(=O)[C@@H](NC(=O)CCN2CCN(CCCCOc3cc(F)c([C@@H]4c5[nH]c6ccccc6c5C[C@@H](C)N4CC(C)(C)F)c(F)c3)CC2)C(C)(C)C)cc1 [Example 98, (2S,4R)-1-((S)-2-(3-(4-(4-(3,5-Difluoro-4-((1R,3R)-2-(2-fluoro-2-methylpropyl)-3-methyl-2,3,4,9-tetrahydro-1H-pyrido[3,4-b]indol-1-yl)phenoxy)butyl)piperazin-1-yl)propanamido)-3,3-dimethylbutanoyl)-4-hydroxy-N-(4-(4-methylthiazol-5-yl)benzyl)pyrrolidine-2-carboxamide] | 0.6 nM | 0.4 nM |
